Some test systems named below: ACHN; HL-60; HOP-62; LOX IMVI; MCF7; MDA-N; NCI-H226; NCI-H23; NCI-H460; NCI/ADR-RES; OVCAR-5; OVCAR-8; RPMI-8226; SF-268; SK-MEL-2; SN12C; T47D; TK-10; UACC-257; UACC-62.
What all share (assay): NCI anticancer screen, dose series, 48 h

Molecules are shown by their SMILES.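 Exposure lasted 48 hours, with cells grown in 96-well plates and compounds tested at five concentrations. GI50: concentration for 50% inhibition of growth.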 Calls of active or inactive are those of the source. Rule as the data show it: active = GI50 up to about 1.1 µM and inactive = higher.

As for `CC(C)=CCC[C@@H](C)C1=C(N)C(=O)C(C)=C(O)C1=O`, the GI50 was 18.8 µM (inactive) in the assay on ACHN; 13 µM (inactive) in the assay on HL-60; 55.1 µM (inactive) with HOP-62; 36.6 µM (inactive) in the assay on LOX IMVI; 61.5 µM (inactive) with MCF7; 51.3 µM (inactive) in the assay on MDA-N. Besides, the GI50 is 27.5 µM (inactive) in the assay with NCI-H226; 42.7 µM (inactive) in the assay with NCI-H23; 33.7 µM (inactive) in the assay with NCI-H460; 8.28 µM (inactive) in the assay with NCI/ADR-RES; 53.1 µM (inactive) in the assay on OVCAR-5; 22.4 µM (inactive) in the assay with OVCAR-8. For the same molecule, the GI50 was 39.8 µM (inactive) in the assay on RPMI-8226; 27.4 µM (inactive) in the assay with SF-268; 65.9 µM (inactive) in the assay on SK-MEL-2; 45.8 µM (inactive) with SN12C; 42.9 µM (inactive) in the assay on T47D; 53.1 µM (inactive) in the assay on TK-10. For the same molecule, the results for the GI50 in the assay on UACC-257 and in the assay on UACC-62 were > 75 µM (inactive) and 31.1 µM (inactive), respectively.

For `OCCc1ccsc1-c1sc(-c2cc(CCO)c(-c3sc(-c4cc(CCO)c(-c5sccc5CCO)s4)cc3CCO)s2)cc1CCO`, the GI50 with ACHN is 1.47 µM (inactive); in the assay on HL-60, 1.53 µM (inactive); in the assay on HOP-62, 1.38 µM (inactive); with LOX IMVI it was 0.617 µM (active); in the assay with MCF7 it was 0.624 µM (active); in the assay on MDA-N, 1.24 µM (inactive). The GI50 in the assay with NCI-H226 is 1.65 µM (inactive); with NCI-H23, 0.853 µM (active); in the assay with NCI-H460, 0.841 µM (active); in the assay on NCI/ADR-RES it was 1.86 µM (inactive); in the assay on OVCAR-5, 1.38 µM (inactive); in the assay with OVCAR-8, 1.55 µM (inactive). In addition, the GI50 in the assay on RPMI-8226 was 0.344 µM (active); with SF-268, 0.881 µM (active); with SK-MEL-2, 1.68 µM (inactive); in the assay with SN12C, 1.85 µM (inactive); in the assay on T47D, 1.3 µM (inactive); in the assay with TK-10 it was 1.55 µM (inactive). The GI50 with UACC-257 was 1.13 µM (inactive); in the assay with UACC-62, 1.56 µM (inactive).

Consider `C=C1C(=O)OC2/C=C(/C)C3(O)OC(C)(CC(OC(=O)C(C)C)C12)CC3OC(C)=O` (stereo not given), for which the GI50 was 2.3 µM (inactive) with ACHN; 2.64 µM (inactive) in the assay on HL-60; 30.4 µM (inactive) with HOP-62; 8.87 µM (inactive) in the assay with LOX IMVI; 3.7 µM (inactive) in the assay on MCF7; 2.04 µM (inactive) in the assay on MDA-N. The GI50 with NCI-H226 was 35.5 µM (inactive); in the assay with NCI-H23, 3.34 µM (inactive); with NCI-H460, 3.9 µM (inactive); with NCI/ADR-RES, 11.9 µM (inactive); in the assay on OVCAR-5 it was 12.9 µM (inactive); in the assay with OVCAR-8, 3.27 µM (inactive). Also, the GI50 was 4.43 µM (inactive) in the assay on RPMI-8226; 22.6 µM (inactive) with SF-268; 12 µM (inactive) with SK-MEL-2; 4.9 µM (inactive) in the assay with SN12C; 13 µM (inactive) with T47D; 5.82 µM (inactive) in the assay on TK-10. For the same molecule, the GI50 with UACC-257 is 16.4 µM (inactive); with UACC-62 it was 11 µM (inactive).

For the molecule `Cc1cn(CCC(N)C(=O)O)c(=O)[nH]c1=O` (stereo not given), the GI50 in the assay on ACHN, in the assay on HL-60, in the assay with HOP-62, in the assay with LOX IMVI, in the assay with MCF7 and in the assay on MDA-N was > 100 µM (inactive) throughout. Besides, the GI50 with NCI-H226, with NCI-H23, in the assay with NCI-H460, in the assay with NCI/ADR-RES, in the assay on OVCAR-5 and with OVCAR-8 was > 100 µM (inactive) throughout. The GI50 in the assay on RPMI-8226, in the assay on SF-268, in the assay on SK-MEL-2, with SN12C, in the assay on T47D and in the assay on TK-10 was > 100 µM (inactive) in each case. Also, the GI50 in the assay with UACC-257 and in the assay on UACC-62 was > 100 µM (inactive) each time.

Turning to `O=c1[nH]nc(Cc2ccccc2)[nH]1`, the GI50 in the assay with ACHN, in the assay on HL-60, in the assay with HOP-62, in the assay on LOX IMVI, in the assay on MCF7 and in the assay on MDA-N was > 100 µM (inactive) in each case. Besides, the GI50 in the assay with NCI-H226, with NCI-H23, with NCI-H460, in the assay on NCI/ADR-RES, in the assay with OVCAR-5 and in the assay on OVCAR-8 was > 100 µM (inactive) each time. Further, the GI50 in the assay with RPMI-8226, with SF-268, in the assay on SK-MEL-2, with SN12C, in the assay on T47D and in the assay with TK-10 was > 100 µM (inactive) each time. The GI50 in the assay with UACC-257 and in the assay on UACC-62 was > 100 µM (inactive) throughout.

With `Cc1noc2nnn(-c3ccc(Cl)cc3)c(=O)c12`, the GI50 is 3.59 µM (inactive) in the assay on ACHN; 1.39 µM (inactive) with HL-60; 12.8 µM (inactive) with HOP-62; 2.5 µM (inactive) with LOX IMVI; 2.67 µM (inactive) in the assay with MCF7; 6.01 µM (inactive) in the assay on MDA-N. Also, the GI50 in the assay on NCI-H226 was 2.61 µM (inactive); in the assay on NCI-H23, 4.75 µM (inactive); in the assay with NCI-H460, 6.43 µM (inactive); in the assay with NCI/ADR-RES, 4.17 µM (inactive); in the assay with OVCAR-5 it was 7.23 µM (inactive); in the assay with OVCAR-8, 2.69 µM (inactive). The GI50 was 0.36 µM (active) in the assay with RPMI-8226; 6.98 µM (inactive) in the assay on SF-268; 3.24 µM (inactive) in the assay on SK-MEL-2; 3.89 µM (inactive) in the assay with SN12C; 0.614 µM (active) in the assay on T47D; 9.06 µM (inactive) in the assay with TK-10. For the same molecule, the GI50 in the assay on UACC-257 is 7.5 µM (inactive); in the assay with UACC-62 it was 4.43 µM (inactive).

With `Nc1nc(-c2ccccc2)cc(-c2ccc(F)cc2)c1-c1ccc(Cl)cc1`, the GI50 in the assay with ACHN is > 100 µM (inactive); in the assay on HL-60, 21.4 µM (inactive); in the assay on HOP-62, 32.6 µM (inactive); in the assay on LOX IMVI, > 100 µM (inactive); with MCF7, 41.7 µM (inactive); in the assay on MDA-N, > 100 µM (inactive). The GI50 is > 100 µM (inactive) in the assay on NCI-H226; > 100 µM (inactive) with NCI-H23; 31.3 µM (inactive) with NCI-H460; > 100 µM (inactive) with NCI/ADR-RES; > 100 µM (inactive) in the assay with OVCAR-5; > 100 µM (inactive) in the assay on OVCAR-8. The GI50 in the assay with RPMI-8226 was 44.3 µM (inactive); with SF-268, > 100 µM (inactive); in the assay on SK-MEL-2, > 100 µM (inactive); in the assay with SN12C it was > 100 µM (inactive); with T47D it was > 100 µM (inactive); in the assay on TK-10, > 100 µM (inactive). Besides, the GI50 with UACC-257 and in the assay on UACC-62 was > 100 µM (inactive) each time.

In the case of `CC(C)C1OCC(CO)CO1` (stereo not given), the GI50 with ACHN, with HL-60, with HOP-62, in the assay on LOX IMVI, in the assay on MCF7 and in the assay on MDA-N was > 100 µM (inactive) each time. Besides, the GI50 with NCI-H226, with NCI-H23, with NCI-H460, in the assay on NCI/ADR-RES, in the assay with OVCAR-5 and with OVCAR-8 was > 100 µM (inactive) throughout. Further, the GI50 with RPMI-8226, with SF-268, in the assay on SK-MEL-2, in the assay on SN12C, in the assay with T47D and in the assay on TK-10 was > 100 µM (inactive) each time. Besides, the GI50 with UACC-257 and in the assay on UACC-62 was > 100 µM (inactive) in each case.

In the case of `Cc1c(-c2ccccc2)c(C#N)c2nnn(-c3ccccc3)c(=O)n12`, the GI50 in the assay on ACHN is 76.4 µM (inactive); with HL-60, 84.1 µM (inactive); with HOP-62 it was 44.2 µM (inactive); in the assay with LOX IMVI it was 48.4 µM (inactive); with MCF7 it was 80.9 µM (inactive); in the assay on MDA-N, > 100 µM (inactive). Also, the GI50 was > 100 µM (inactive) in the assay with NCI-H226; > 100 µM (inactive) in the assay on NCI-H23; 64.6 µM (inactive) in the assay with NCI-H460; > 100 µM (inactive) with NCI/ADR-RES; > 100 µM (inactive) with OVCAR-5; > 100 µM (inactive) with OVCAR-8. Also, the GI50 in the assay on RPMI-8226 is > 100 µM (inactive); in the assay with SF-268, > 100 µM (inactive); in the assay with SK-MEL-2 it was > 100 µM (inactive); with SN12C it was > 100 µM (inactive); in the assay with T47D, 33 µM (inactive); in the assay on TK-10, > 100 µM (inactive). The GI50 in the assay on UACC-257 is > 100 µM (inactive); in the assay on UACC-62, 92.5 µM (inactive).

With `Cc1nn(-c2ccccc2)c(C)c1/C=N/NC(=O)c1sc(=S)n(-c2ccccc2)c1N`, the GI50 with ACHN is 1.48 µM (inactive); in the assay on HL-60, 20.5 µM (inactive); with HOP-62 it was 9.84 µM (inactive); in the assay on LOX IMVI, 2.09 µM (inactive); with MCF7, 5.65 µM (inactive); in the assay with MDA-N, 4.19 µM (inactive). Moreover, the GI50 with NCI-H226 is 6.52 µM (inactive); in the assay with NCI-H23, 6.81 µM (inactive); in the assay on NCI-H460, 3.08 µM (inactive); with NCI/ADR-RES, 3.62 µM (inactive); in the assay on OVCAR-5 it was 5.52 µM (inactive); with OVCAR-8, 4.69 µM (inactive). The GI50 in the assay on RPMI-8226 is 3.35 µM (inactive); with SF-268, 5.22 µM (inactive); in the assay with SK-MEL-2 it was 29 µM (inactive); with SN12C, 6.28 µM (inactive); in the assay on T47D it was 4.2 µM (inactive); with TK-10, 1.63 µM (inactive). Also, the GI50 was 4.9 µM (inactive) in the assay with UACC-257 and 4.62 µM (inactive) with UACC-62.
